Measured values from PMC5557014 (Biochemical pharmacology, 2017).

What was measured:
HCMV DNA polymerase [1] = target: T1, HCMV DNA polymerase (Human cytomegalovirus, UniProt P08546); test: HCMV DNA polymerase enzyme assay; type: biochemical; details: IC50 HCMV DNA pol, calf thymus DNA
HIV-1 RT K70Q = test: Mutant HIV-1 RT assay K70Q; type: biochemical; details: Poly rC.dG [^3H]dGTP
HIV-1 RT [2] = target: T2, HIV-1 RT (Human immunodeficiency virus type 1 group M subtype B, UniProt P04585); test: Gel-based HIV-1 RT-catalyzed DNA synthesis on heteropolymeric DNA; type: biochemical
HIV-1 RT M184V + E138K = test: Mutant HIV-1 RT assay M184V + E138K; type: biochemical; details: Poly rC.dG [^3H]dGTP
HSV-1 DNA polymerase [3] = target: T3, HSV-1 DNA polymerase (Human herpesvirus 1, UniProt P04293); test: biochemical; type: biochemical; details: varying dGTP, calf thymus DNA
T3 sequence (P04293 whole entry): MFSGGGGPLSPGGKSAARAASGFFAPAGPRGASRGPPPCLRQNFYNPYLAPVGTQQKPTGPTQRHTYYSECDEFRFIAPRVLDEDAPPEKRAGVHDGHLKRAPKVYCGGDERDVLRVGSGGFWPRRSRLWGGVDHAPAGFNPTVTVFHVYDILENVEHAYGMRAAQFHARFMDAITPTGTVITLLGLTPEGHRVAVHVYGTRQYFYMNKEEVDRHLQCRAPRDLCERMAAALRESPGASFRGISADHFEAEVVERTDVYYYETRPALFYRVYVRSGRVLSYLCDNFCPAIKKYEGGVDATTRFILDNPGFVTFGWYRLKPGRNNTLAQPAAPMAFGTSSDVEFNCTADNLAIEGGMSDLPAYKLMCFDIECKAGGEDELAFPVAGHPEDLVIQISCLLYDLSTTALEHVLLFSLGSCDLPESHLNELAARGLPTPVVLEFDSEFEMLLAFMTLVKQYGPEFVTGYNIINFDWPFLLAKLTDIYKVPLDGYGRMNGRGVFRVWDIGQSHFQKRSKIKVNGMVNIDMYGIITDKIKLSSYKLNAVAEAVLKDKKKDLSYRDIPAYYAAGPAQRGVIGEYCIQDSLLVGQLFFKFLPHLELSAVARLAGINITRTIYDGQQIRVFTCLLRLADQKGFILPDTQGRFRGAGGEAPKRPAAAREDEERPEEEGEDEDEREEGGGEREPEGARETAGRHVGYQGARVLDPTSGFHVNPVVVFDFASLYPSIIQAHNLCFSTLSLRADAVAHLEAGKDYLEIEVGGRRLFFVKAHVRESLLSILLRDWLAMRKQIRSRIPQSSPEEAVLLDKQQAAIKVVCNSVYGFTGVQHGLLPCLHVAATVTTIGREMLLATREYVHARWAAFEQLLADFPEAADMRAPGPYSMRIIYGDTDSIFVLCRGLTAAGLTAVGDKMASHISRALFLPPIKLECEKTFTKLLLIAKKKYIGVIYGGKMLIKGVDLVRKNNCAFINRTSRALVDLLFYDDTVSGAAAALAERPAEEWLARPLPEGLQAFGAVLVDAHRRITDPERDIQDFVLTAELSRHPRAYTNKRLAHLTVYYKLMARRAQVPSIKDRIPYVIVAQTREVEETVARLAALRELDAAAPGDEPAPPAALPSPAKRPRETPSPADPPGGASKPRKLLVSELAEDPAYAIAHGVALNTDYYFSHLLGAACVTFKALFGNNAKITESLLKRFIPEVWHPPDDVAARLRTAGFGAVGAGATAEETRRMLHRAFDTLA

HCMV DNA polymerase [4] = target: T1, HCMV DNA polymerase; test: Kinetic analysis of HCMV DNA polymerase inhibition; type: biochemical; details: varying dGTP, calf thymus DNA
HIV-1 RT Y181C = details: Poly rC.dG [^3H]dGTP
HIV-1 RT M184V + Y115F = test: Mutant HIV-1 RT assay M184V + Y115F; type: biochemical; details: Poly rC.dG [^3H]dGTP
HIV-1 RT M184I = test: Mutant HIV-1 RT assay M184I; type: biochemical; details: Poly rC.dG [^3H]dGTP
HIV-1 RT L100I = details: Poly rC.dG [^3H]dGTP
HIV-1 RT K103N = details: Poly rC.dG [^3H]dGTP
HIV-1 RT [5] = target: T2, HIV-1 RT; test: HIV-1 RT assay with homopolymeric template/primers; type: biochemical; details: IC50 HIV-1 RT
HIV-1 RT [6] = target: T2, HIV-1 RT; test: Kinetic analysis of HIV-1 RT inhibition; type: biochemical
HIV-1 RT Y115F = test: Mutant HIV-1 RT assay Y115F; type: biochemical; details: Poly rC.dG [^3H]dGTP
[7] = target: T4, cellular DNA polymerase α (Homo sapiens, UniProt P09884); test: Cellular DNA polymerase α assay; type: biochemical
T4 sequence (P09884 1-1462): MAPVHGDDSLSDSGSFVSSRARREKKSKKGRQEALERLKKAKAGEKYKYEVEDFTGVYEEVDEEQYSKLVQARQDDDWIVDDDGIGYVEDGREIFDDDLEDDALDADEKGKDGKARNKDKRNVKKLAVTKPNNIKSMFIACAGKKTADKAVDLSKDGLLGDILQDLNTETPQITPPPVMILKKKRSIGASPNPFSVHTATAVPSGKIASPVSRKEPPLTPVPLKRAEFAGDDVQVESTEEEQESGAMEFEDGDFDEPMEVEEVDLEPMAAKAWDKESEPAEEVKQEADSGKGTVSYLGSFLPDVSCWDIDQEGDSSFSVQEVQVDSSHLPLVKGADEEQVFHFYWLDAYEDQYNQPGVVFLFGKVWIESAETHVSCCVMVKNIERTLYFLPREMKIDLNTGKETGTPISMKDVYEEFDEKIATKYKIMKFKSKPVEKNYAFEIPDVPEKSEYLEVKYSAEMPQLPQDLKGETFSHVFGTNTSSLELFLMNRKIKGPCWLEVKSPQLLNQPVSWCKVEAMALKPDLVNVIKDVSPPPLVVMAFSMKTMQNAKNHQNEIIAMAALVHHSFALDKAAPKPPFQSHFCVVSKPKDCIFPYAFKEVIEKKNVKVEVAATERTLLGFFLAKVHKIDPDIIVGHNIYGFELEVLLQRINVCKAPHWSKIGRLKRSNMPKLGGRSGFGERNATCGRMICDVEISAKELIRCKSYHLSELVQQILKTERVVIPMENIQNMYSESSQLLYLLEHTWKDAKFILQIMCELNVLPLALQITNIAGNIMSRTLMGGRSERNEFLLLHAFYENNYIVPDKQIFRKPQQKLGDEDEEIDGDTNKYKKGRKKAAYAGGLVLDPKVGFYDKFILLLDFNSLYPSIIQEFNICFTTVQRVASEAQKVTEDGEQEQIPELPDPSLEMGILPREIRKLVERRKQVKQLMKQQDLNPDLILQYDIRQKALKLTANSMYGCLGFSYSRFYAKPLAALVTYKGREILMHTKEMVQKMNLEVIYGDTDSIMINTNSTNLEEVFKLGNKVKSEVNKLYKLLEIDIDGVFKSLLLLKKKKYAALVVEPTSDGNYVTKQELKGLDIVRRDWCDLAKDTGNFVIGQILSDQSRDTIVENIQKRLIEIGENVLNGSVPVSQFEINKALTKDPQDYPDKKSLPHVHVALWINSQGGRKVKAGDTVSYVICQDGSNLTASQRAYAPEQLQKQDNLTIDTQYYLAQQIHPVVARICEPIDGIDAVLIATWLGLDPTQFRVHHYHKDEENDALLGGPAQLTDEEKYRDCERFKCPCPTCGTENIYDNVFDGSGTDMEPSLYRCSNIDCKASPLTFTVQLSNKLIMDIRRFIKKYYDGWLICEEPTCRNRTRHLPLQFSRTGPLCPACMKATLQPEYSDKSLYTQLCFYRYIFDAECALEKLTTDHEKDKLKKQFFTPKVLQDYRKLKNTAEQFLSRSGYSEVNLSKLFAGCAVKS

HIV-1 RT F61A = test: Mutant HIV-1 RT assay F61A; type: biochemical; details: Poly rC.dG [^3H]dGTP
HIV-1 RT M184V = test: Mutant HIV-1 RT assay M184V; type: biochemical; details: Poly rC.dG [^3H]dGTP
HIV-1 RT E138K = test: Mutant HIV-1 RT assay E138K; type: biochemical; details: Poly rC.dG [^3H]dGTP
HIV-1 RT K65R = test: Mutant HIV-1 RT assay K65R; type: biochemical; details: Poly rC.dG [^3H]dGTP
HSV-1 DNA polymerase [8] = target: T3, HSV-1 DNA polymerase; test: HSV-1 DNA polymerase enzyme assay; type: biochemical; details: IC50 HSV-1 DNA pol, calf thymus DNA
HIV-1 RT V75I = test: Mutant HIV-1 RT assay V75I; type: biochemical; details: Poly rC.dG [^3H]dGTP
HIV-1 RT Q151M = test: Mutant HIV-1 RT assay Q151M; type: biochemical; details: Poly rC.dG [^3H]dGTP
HIV-1 RT K70R = test: Mutant HIV-1 RT assay K70R; type: biochemical; details: Poly rC.dG [^3H]dGTP
HIV-1 RT V106A = details: Poly rC.dG [^3H]dGTP
HIV-1 RT [9] = target: T2, HIV-1 RT; test: Site-specific Fe2+ footprinting, post-translocation trapping; type: binding
HIV-1 RT K70E = test: Mutant HIV-1 RT assay K70E; type: biochemical; details: Poly rC.dG [^3H]dGTP
[10] = target: cellular DNA polymerase β (Homo sapiens, UniProt P06746); test: Cellular DNA polymerase β assay; type: biochemical

T1 sequence (P08546 whole entry): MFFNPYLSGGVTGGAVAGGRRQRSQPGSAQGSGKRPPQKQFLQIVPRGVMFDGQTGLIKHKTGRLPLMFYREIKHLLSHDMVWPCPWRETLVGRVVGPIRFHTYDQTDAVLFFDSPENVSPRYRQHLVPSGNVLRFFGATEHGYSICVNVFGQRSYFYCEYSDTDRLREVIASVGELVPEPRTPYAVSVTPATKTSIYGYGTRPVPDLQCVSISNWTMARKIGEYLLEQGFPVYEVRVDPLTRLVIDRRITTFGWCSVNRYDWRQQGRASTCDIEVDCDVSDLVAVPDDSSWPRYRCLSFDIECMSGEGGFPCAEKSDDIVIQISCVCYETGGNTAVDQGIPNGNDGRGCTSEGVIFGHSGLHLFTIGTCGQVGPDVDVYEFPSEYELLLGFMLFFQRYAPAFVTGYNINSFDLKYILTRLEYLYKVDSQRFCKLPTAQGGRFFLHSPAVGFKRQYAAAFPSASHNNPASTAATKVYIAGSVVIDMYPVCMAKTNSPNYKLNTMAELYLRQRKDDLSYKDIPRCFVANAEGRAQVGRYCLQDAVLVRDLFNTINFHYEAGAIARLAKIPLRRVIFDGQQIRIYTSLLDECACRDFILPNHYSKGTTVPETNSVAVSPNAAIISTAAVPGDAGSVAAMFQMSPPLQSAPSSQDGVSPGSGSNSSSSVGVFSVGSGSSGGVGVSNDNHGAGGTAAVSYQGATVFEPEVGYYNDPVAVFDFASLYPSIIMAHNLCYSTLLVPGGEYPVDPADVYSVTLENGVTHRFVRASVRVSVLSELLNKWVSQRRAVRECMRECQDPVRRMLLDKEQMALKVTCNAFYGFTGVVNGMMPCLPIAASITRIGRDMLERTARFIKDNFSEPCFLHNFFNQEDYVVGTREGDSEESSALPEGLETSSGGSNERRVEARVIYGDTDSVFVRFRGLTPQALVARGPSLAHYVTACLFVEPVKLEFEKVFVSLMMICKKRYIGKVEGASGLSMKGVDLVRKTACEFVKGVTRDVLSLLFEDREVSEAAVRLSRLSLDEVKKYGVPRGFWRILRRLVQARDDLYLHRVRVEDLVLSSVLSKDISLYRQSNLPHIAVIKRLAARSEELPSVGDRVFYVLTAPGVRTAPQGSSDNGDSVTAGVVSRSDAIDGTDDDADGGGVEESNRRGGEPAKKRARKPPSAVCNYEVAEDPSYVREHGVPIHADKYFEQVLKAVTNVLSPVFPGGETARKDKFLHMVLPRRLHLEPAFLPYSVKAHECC

Q: Which IC50 (HCMV DNA polymerase [1]; [^3H]dGTP) does the source give for `Nc1nc2c(ncn2[C@@H]2CC[C@H](OC(C(=O)O)P(=O)(O)O)C2)c(=O)[nH]1` (mixture of isomers) [(L,D)-(±)G-α-CNP, cis-9-{4-[Carboxy(phosphono)methoxy]cyclopentan-1-yl}guanine] here?
A: 9.4 ± 0.2 µM

Q: What about the IC50 (HCMV DNA polymerase [1]; [^3H]dTTP) of the same compound?
A: 16 ± 8 µM

Q: What about the “Fold-resistance compared to wild-type” value (HIV-1 RT K70Q) of the same compound?
A: 0.7 fold

Q: What about the IC50 (HIV-1 RT [2]) of the same compound?
A: 1.8 ± 1.1 µM

Q: And the “Fold-resistance compared to wild-type” value (HIV-1 RT M184V + E138K)?
A: 6.1 fold

Q: What about the Ki (HSV-1 DNA polymerase [3]; competitive model) of the same compound?
A: 0.521 µM

Q: And the Ki (HSV-1 DNA polymerase [3]; mixed model enzyme inhibition)?
A: 9.28 µM

Q: And the Ki (HSV-1 DNA polymerase [3]; non-competitive model)?
A: 4.17 µM

Q: And the “Most likely mode of inhibition” value (HSV-1 DNA polymerase [3])?
A: Non-competitive

Q: What about the “α (alpha-value), mixed model enzyme inhibition” value (HSV-1 DNA polymerase [3]) of the same compound?
A: 0.386

Q: What about the Ki (HCMV DNA polymerase [4]; competitive model) of the same compound?
A: 2.12 µM

Q: And the Ki (HCMV DNA polymerase [4]; mixed model enzyme inhibition)?
A: 9.2 µM

Q: And the Ki (HCMV DNA polymerase [4]; non-competitive model)?
A: 8.59 µM

Q: What about the “Most likely mode of inhibition” value (HCMV DNA polymerase [4]) of the same compound?
A: Non-competitive

Q: And the “α (alpha-value), mixed model enzyme inhibition” value (HCMV DNA polymerase [4]; listed as (D,L)-(−,+)-G-α-CNP)?
A: 0.904

Q: What about the “Fold-resistance compared to wild-type” value (HIV-1 RT Y181C) of the same compound?
A: 5.2 fold

Q: And the “Fold-resistance compared to wild-type” value (HIV-1 RT M184V + Y115F)?
A: 39 fold

Q: And the “Fold-resistance compared to wild-type” value (HIV-1 RT M184I)?
A: 19 fold

Q: What about the “Fold-resistance compared to wild-type” value (HIV-1 RT L100I) of the same compound?
A: 5.2 fold

Q: And the “Fold-resistance compared to wild-type” value (HIV-1 RT K103N)?
A: 1.1 fold

Q: What about the IC50 (HIV-1 RT [5]; poly rA.dT, [^3H]dTTP) of the same compound?
A: 536 µM

Q: What about the IC50 (HIV-1 RT [5]; poly rC.dG, [^3H]dGTP) of the same compound?
A: 0.62 ± 0.19 µM

Q: And the Ki (HIV-1 RT [6]; competitive model, varying dGTP, poly rC.dG)?
A: 0.455 µM

Q: What about the Ki (HIV-1 RT [6]; competitive model, varying poly rC.dG) of the same compound?
A: 0.035 µM

Q: And the Ki (HIV-1 RT [6]; mixed model enzyme inhibition, varying dGTP, poly rC.dG)?
A: 0.944 µM

Q: What about the Ki (HIV-1 RT [6]; mixed model enzyme inhibition, varying poly rC.dG) of the same compound?
A: 0.832 µM

Q: And the Ki (HIV-1 RT [6]; non-competitive model, varying dGTP, poly rC.dG)?
A: 1.3 µM

Q: And the Ki (HIV-1 RT [6]; non-competitive model, varying poly rC.dG)?
A: 0.169 µM

Q: And the “Most likely mode of inhibition” value (HIV-1 RT [6]; varying dGTP, poly rC.dG)?
A: Competitive

Q: What about the “α (alpha-value), mixed model enzyme inhibition” value (HIV-1 RT [6]; varying dGTP, poly rC.dG) of the same compound?
A: 1.799

Q: And the “Most likely mode of inhibition” value (HIV-1 RT [6]; varying poly rC.dG)?
A: Non-competitive

Q: And the “α (alpha-value), mixed model enzyme inhibition” value (HIV-1 RT [6]; varying poly rC.dG)?
A: 0.147

Q: And the “Fold-resistance compared to wild-type” value (HIV-1 RT Y115F)?
A: 2.3 fold

Q: What about the IC50 [7] of the same compound?
A: 477 ± 83 µM

Q: And the “Fold-resistance compared to wild-type” value (HIV-1 RT F61A)?
A: 79 fold

Q: And the “Fold-resistance compared to wild-type” value (HIV-1 RT M184V)?
A: 8.7 fold

Q: What about the “Fold-resistance compared to wild-type” value (HIV-1 RT E138K) of the same compound?
A: 0.9 fold

Q: And the “Fold-resistance compared to wild-type” value (HIV-1 RT K65R)?
A: 2.1 fold

Q: And the IC50 (HSV-1 DNA polymerase [8]; [^3H]dGTP)?
A: 8 ± 6 µM

Q: And the IC50 (HSV-1 DNA polymerase [8]; [^3H]dTTP)?
A: 32 ± 11 µM

Q: What about the “Fold-resistance compared to wild-type” value (HIV-1 RT V75I) of the same compound?
A: 8.7 fold

Q: And the “Fold-resistance compared to wild-type” value (HIV-1 RT Q151M)?
A: 3.1 fold

Q: And the “Fold-resistance compared to wild-type” value (HIV-1 RT K70R)?
A: 2.6 fold

Q: And the “Fold-resistance compared to wild-type” value (HIV-1 RT V106A)?
A: 1.6 fold

Q: And the EC50 (HIV-1 RT [9])?
A: 0.044 ± 0.002 µM

Q: And the “Fold-resistance compared to wild-type” value (HIV-1 RT K70E)?
A: 0.7 fold

Q: And the IC50 [10]?
A: 531 ± 5 µM
